Source: patent publication US20250302823A1, “COMPOSITIONS AND METHODS FOR TREATING HEPATIC […] GLYCINE TRANSPORT INHIBITORS” (Disc Medicine, Inc., priority 2022, published 2025)

Assays:
[1] = test system: HepG2 cells transduced with shHMBS, GlyT1, ALAS1; assay: 5-ALA and PBG production in AIP cellular model (HepG2 with shHMBS, GlyT1, ALAS1); assay type: cell-based, human
Description: The hepatic origin cell line HepG2 was engineered to express shRNA against HMBS, a gene in the heme biosynthesis pathway whose loss-of-function mutations cause hepatic porphyria. The shRNA reduced HMBS mRNA by 50% and HMBS protein by 70%. Hepatic porphyria is a dormant disease activated by increased expression of ALAS1. To establish the cellular model that resembles the pathologic status of hepatic porphyria, the HepG2 cells with HMBS knockdown were also transduced by lentivirus to overexpress ALAS1 and GlyT1.
The normal plasma glycine concentration in human adults ranges from 0.12 to 0.55 mM. To confirm GlyT1 inhibitors such as bitopertin can decrease production of toxic metabolites at physiological condition, the modified HepG2 cells were treated with bitopertin in the presence of different concentrations of glycine (0.1-1 mM).

GlyT1 = biological target: T1, GlyT1 (Homo sapiens, UniProt P48067); assay: 3H-glycine uptake in HepG2 cells overexpressing GlyT1; assay type: cell-based
T1 construct: expressed in transfected cells; host or cells: HepG2, lentiviral infection (pLenti6.3-GlyT1)
T1 sequence (P48067 1-706): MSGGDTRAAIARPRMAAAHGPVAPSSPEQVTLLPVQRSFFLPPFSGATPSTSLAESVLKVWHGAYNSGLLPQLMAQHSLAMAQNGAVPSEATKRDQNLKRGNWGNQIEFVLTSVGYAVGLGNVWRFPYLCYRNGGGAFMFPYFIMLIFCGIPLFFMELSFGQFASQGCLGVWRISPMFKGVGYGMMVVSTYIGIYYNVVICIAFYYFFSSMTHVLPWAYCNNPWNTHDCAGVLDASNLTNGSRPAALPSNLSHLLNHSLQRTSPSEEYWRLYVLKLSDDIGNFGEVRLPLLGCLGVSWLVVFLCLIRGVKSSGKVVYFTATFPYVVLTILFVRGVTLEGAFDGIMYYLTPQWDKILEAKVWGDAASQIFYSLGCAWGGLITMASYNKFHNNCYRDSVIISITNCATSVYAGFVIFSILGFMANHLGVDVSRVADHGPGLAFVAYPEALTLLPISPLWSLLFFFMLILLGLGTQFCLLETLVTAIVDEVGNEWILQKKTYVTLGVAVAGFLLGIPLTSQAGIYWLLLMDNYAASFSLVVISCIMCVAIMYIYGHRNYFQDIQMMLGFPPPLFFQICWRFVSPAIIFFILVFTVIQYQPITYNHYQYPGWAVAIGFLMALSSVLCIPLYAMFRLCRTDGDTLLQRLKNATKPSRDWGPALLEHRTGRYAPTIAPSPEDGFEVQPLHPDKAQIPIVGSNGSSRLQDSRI
Experimental: The hepatic originated cell line HepG2 cell was engineered via lentiviral infection to overexpress untagged GlyT1 (FIG. 4A) or HA-Flag-tagged GlyT1 (FIG. 4B). Overexpression of GlyT1 was used to mimic the phenobarbital induced AIP symptoms observed in HepG2 as described in Example 3. The HA-Flag tagged construct was used to confirm the overexpression of the GlyT1 protein by Western blot. Overexpression of the untagged construct was confirmed by qPCR. The cells were cultured in the presence of the GlyT1 inhibitor bitopertin at room temperature for 60 min and then incubated with 20 nM ^3H-labeled glycine in the presence of 25 μM unlabeled glycine for 60 min. The uptake of glycine was measured by detection of radioisotope levels.

[2] = test system: ALAS1 and GlyT1 mRNA in HepG2 cells; assay: qPCR expression of ALAS1 and GlyT1 in HepG2 cells after phenobarbital

| SMILES | toxic metabolite 5-ALA at different glycine concentrations ([1]; glycine 0.1-1 mM in medium, FIG. 6A) | toxic metabolite PBG at different glycine concentrations ([1]; glycine 0.1-1 mM in medium, FIG. 6B) | production of toxic metabolite 5-ALA ([1]; modified HepG2 cells, FIG. 5A) | production of toxic metabolite PBG ([1]; modified HepG2 cells, FIG. 5B) | IC50 (GlyT1; engineered HepG2 overexpressing untagged or HA-Flag-tagged GlyT1, 20 nM 3H-glycine + 25 μM unlabeled glycine, 60 min) [nM] | glycine uptake in the engineered HepG2 cells (GlyT1; in the presence of bitopertin) | increase of mRNA of ALAS1 and GlyT1 ([2]; HepG2, 24 h after phenobarbital treatment) [fold] | increase of mRNA of ALAS1 and GlyT1 ([2]; HepG2, 48 h after phenobarbital treatment) [fold] |
| --- | --- | --- | --- | --- | --- | --- | --- | --- |
| C[C@H](Oc1ccc(S(C)(=O)=O)cc1C(=O)N1CCN(c2ncc(C(F)(F)F)cc2F)CC1)C(F)(F)F [bitopertin] | consistent reduction | consistent reduction | significantly decrease | significantly decrease | 710 to 1540 | significantly reduced | – | – |
| CCC1(c2ccccc2)C(=O)NC(=O)NC1=O [phenobarbital] | – | – | – | – | – | – | 3 | 6 |
